Measured values: patent publication US7741047B2, “Method for treating autoimmune diseases and screening method for preventive or therapeutic agent for the same” (Kowa Co., Ltd., priority 2003, dated 2010)

Legend:
[1] = system: MSG:B6, ERαKO, HSG, MCF-7, Jurkat, HT-29 and Colo201 cells; assay: Apoptosis induction of cultured cells, positive control groups; assay type: cell-based; conditions: staurosporin 10^−6 M, all cell groups, not differing from one group to another
Procedure: (§1) Cells of each of the following cell lines were cultured through a routine method; mouse salivary gland cell lines (MSG:B6 and ERαKO); human salivary gland cell line (HSG); human breast cancer cultured-cell line (MCF-7); human acute T cell leukemia cell line (Jurkat); and human colon cancer cultured-cell lines (HT-29 and Colo201). The cultured cells were reacted with tamoxifen (Tam, final concentration: 10^−7 M), an antagonist of estrogen. […] Separately, the above cultured cells were reacted with staurosporin (an apoptosis inducer, final concentration: 10^−6 M), and the resultant cells were used as a positive control group. Forty-eight hours after the addition of Tam, apoptosis of the cells was determined by means of a flow cytometer, by use of Annexin-V-FITC.

[2] = system: RHO cells (RBAp48-stable cell line from HSG cells); assay: Effect of siRNA on RBAp48-induced apoptosis, Annexin-V-FITC flow cytometry; assay type: cell-based, human; conditions: 50 nM siRNA by lipofection, IPTG 24 h after transfer, culture 8 h
From the text: (§2) A stable cell line in which RBAp48 expression is stably regulated by addition of IPTG to the culture system is established by means of LacSwitch II Inducible Mammalian Expression System (STRATEGENE) through use of HSG cells (RHO cell). […] Separately, the RHO cells were investigated in terms of cell cycle related molecules (i.e., RBs, phosphorylated RB, CyclinD3, and p19ARF) in the cell lysates six hours after addition of IPTG, through western blotting by use of the corresponding antibodies (BD Transduction Laboratory). […] In addition, a nuclear extract of IPTG-added RHO cells was subjected to gel shift assay.
siRNA of RBAp48 was prepared (sense; CGAGGAAUACAAAAUAUGGTT (SEQ ID NO: 1), antisense; CCAUAUUCUGUAUUCCUCGTT (SEQ ID NO: 2)). […] The percent apoptotic cells of the cultured cells was determined by means of a flow cytometer, by use of Annexin-V-FITC.

[3] = system: ERαKO-mouse-derived MSG cells; assay: Apoptosis induction of cultured cells, Annexin-V-FITC flow cytometry; assay type: cell-based; conditions: Tam 10^−7 M, 48 hours
Procedure: as §1

[4] = system: human salivary gland cell line (HSG); assay: as above; assay type: cell-based; conditions: Tam 10^−7 M, 48 hours after addition, compared with groups without Tam
Procedure: as §1

[5] = system: mouse salivary gland cell line MSG (B6); assay: as above; assay type: cell-based; conditions: Tam 10^−7 M, 48 hours after addition, compared with groups without Tam
Procedure: as §1

RBAp48 mRNA in HSG cells = assay: Northern blotting of genes with enhanced expression by anti-estrogen effect; assay type: cell-based, human
[6] = system: human breast cancer cultured-cell line (MCF-7); conditions: MCF-7 cells, previously known; cited from earlier work
[7] = system: RHO cells (RBAp48-stable cell line from HSG cells); assay: Apoptosis of RBAp48-stable cell line after addition of IPTG; assay type: cell-based, human; conditions: from two hours to twelve hours after addition of IPTG
From the text: as §2

For CN[C@@H]1C[C@H]2O[C@@](C)([C@@H]1OC)n1c3ccccc3c3c4c(c5c6ccccc6n2c5c31)C(=O)NC4 [staurosporin], the percent apoptotic cells [1] was “high”.

In the case of “RBAp48 siRNA: siRNA of RBAp48: sense CGAGGAAUACAAAAUAUGGTT (SEQ ID NO: 1), antisense CCAUAUUCUGUAUUCCUCGTT (SEQ ID NO: 2)”, the “apoptosis induced by addition of IPTG” value [2] is reported as “significantly suppressed”.

For CC/C(=C(\c1ccccc1)c1ccc(OCCN(C)C)cc1)c1ccccc1 [tamoxifen], the apoptosis induction [3] was “not to be induced”, the percent apoptotic cells [4] was “significantly high” and the percent apoptotic cells [5] was “significantly high”. The “mRNA (RBAp48 gene) expression” value (RBAp48 mRNA in HSG cells; tamoxifen 10^−7 M, northern blotting) was “enhanced expression”, the “RBAp48 mRNA expression” value (RBAp48 mRNA in HSG cells; two hours after Tam stimulation) was “strong RBAp48 mRNA expression” and the apoptosis induction [6] was “known to be induced”.

In the case of CC(C)S[C@@H]1O[C@H](CO)[C@H](O)[C@H](O)[C@H]1O [IPTG, isopropyl-β-D-thiogalactoside], the percent apoptotic cells [7] is reported as “increase over time”.
